The record followed here is PubChem BioAssay (NCI).

Holding throughout (assay): DTP human tumour cell line panel, 48 h
The subject of test [1] is RXF 393 renal.
The test system of test [2] is HOP-92 NSCLC.
Test [3] concerns MDA-MB-231 breast.
Test [4] deals with SF-295 CNS.
The test system of test [5] is SK-OV-3 ovarian.
Test [6] relates to CAKI-1 renal.
Test [7] concerns UACC-62 melanoma.
Test [8] deals with HCT-15 colon.
In test [9] the test system is SK-MEL-5 melanoma.
In test [10] the test system is LOX IMVI melanoma.

Where “and” joins values, the source holds several entries; their conditions need not be identical. Equal values may be shown once.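 Tested at 5 concentrations; 48 h exposure; 96-well plates; endpoints linearly interpolated, else capped at highest concentration. Here, GI50 denotes the concentration required for 50% inhibition of growth. TGI is the concentration that stops growth completely.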

In the case of `Cc1cc(O)c(O)c(Oc2cc(C)cc(O)c2O)c1`, the TGI in test [1] is 88.2 µM; in [2], 41.1 µM; in [3] it was 52.7 µM; in test [4] it was 55.7 µM; in [5], over 100 µM; in [6] it was over 100 µM. The TGI in test [7] was 56.8 µM; in test [8], 29.9 µM; in test [9] it was over 100 µM; in [10] it was 24.6 µM.
Consider `Cc1csc(-c2ccc3c(c2)COC3(CCCN(C)C)c2ccc(F)cc2)c1` (stereo not given), for which the GI50 is 1.63 µM in test [1]; 1600 nM in test [2]; 1.79 µM in test [3]; 1.84 µM in [4]; 1.87 µM in test [5]; 1620 nM in test [6]. Moreover, the GI50 was 1780 nM in test [7], 1850 nM in test [8], 1820 nM in test [9] and 1770 nM in test [10]. Besides, the TGI in test [1] came to 3.04 µM; in test [2], 3.17 µM; in test [3], 3.34 µM; in test [4] it was 3.52 µM; in test [5] it was 3.69 µM; in [6], 3.01 µM. The TGI in [7] was found to be 3.36 µM; in test [8], 3.51 µM; in test [9], 3.26 µM; in test [10] it was 3.24 µM.
As for `Nc1nc(Cl)nc2c1ncn2C1CCC(COP(=O)(O)OP(=O)(O)OP(=O)(O)O)O1` (stereo not given), the concentration for total growth inhibition (TGI) in test [1] is 75 µM; in [2], 66.6 µM; in [3], over 100 µM; in test [4], 58.4 µM; in test [5], over 100 µM; in test [6], over 100 µM. The TGI in [7] was found to be 47.9 µM; in test [8] it was 79.3 µM; in [10] it was 78.5 µM.
As to `O=C(Nc1ccc(O)c(NS(=O)(=O)c2ccc(F)cc2)c1)c1ccc(-c2ccccc2)cc1`, the GI50 in test [1] was 2.53 µM; in test [2] it was 2680 nM; in test [3] it was 6.15 µM; in test [4] it was 9.71 µM; in test [5] it was 18.8 µM; in test [6] it was 5650 nM. Further, the GI50 in [7] was 7530 nM; in test [8] it was 4360 nM; in test [9], 6420 nM; in [10], 6180 nM. In addition, the TGI in test [1] amounted to 10.7 µM; in test [2], 17.1 µM; in test [3] it was 20.4 µM; in test [4] it was 24 µM; in test [5], 44.2 µM; in [6], 32.6 µM. The TGI in test [7] was determined as 28.1 µM; in test [8], 17.3 µM; in test [9], 19.3 µM; in test [10] it was 21.1 µM.
Consider `CNC(=O)c1c(NC(=O)c2ccc(C(C)C)cc2)sc2c1CCC(=O)C2`, for which the GI50 was 0.289 µM in [1]; 703 nM in test [2]; 0.394 µM in test [3]; 1.13 µM in test [4]; 2.47 µM in [5]; 310 nM in test [6]. Besides, the GI50 in test [7] is 453 nM; in test [8], 216 nM; in test [9] it was 605 nM; in test [10] it was 240 nM. For the same compound, the TGI in test [1] is 1.38 µM; in test [2] it was 3.39 µM; in test [3], 1.71 µM; in test [4] it was 3.35 µM; in test [5] it was 9.09 µM; in [6], 1.5 µM. Besides, the TGI in test [7] is 1.94 µM; in test [8] it was 1.47 µM; in test [9], 1.7 µM; in test [10] it was 1.29 µM.
For `COc1cc(/C=N/Nc2ncnc3c2cnn3Cc2ccccc2)ccc1O`, the GI50 is 4.7 µM in test [1]; 830 nM in test [2]; 3.43 µM in test [3]; over 25 µM in test [4]; 5.99 µM in [5]; over 19900 nM in [6]. Also, the GI50 in test [7] is 10400 nM; in test [8], over 25000 nM; in test [9], 12200 nM; in [10] it was over 17700 nM. Besides, the TGI in test [1] is 19.2 µM; in test [2], 8.86 µM; in [3], over 25 µM; in test [4] it was over 25 µM; in test [5], 16.8 µM; in test [6], over 25 µM. For the same compound, the TGI in [7], in test [8], in test [9] and in test [10] was over 25 µM in each case.
In the case of `CC(=O)Nc1ccc(S(=O)(=O)c2ccc(NC(C)=O)cc2)cc1`, the GI50 is over 100 µM in [1]; over 100000 nM in test [2]; over 100 µM in [3]; over 100 µM in test [5]; over 100000 nM in test [6]; over 100000 nM in test [7]. For the same compound, the GI50 in [8], in test [9] and in test [10] was over 100000 nM in each case. In addition, the TGI in test [1], in test [2], in test [3], in test [5], in test [6] and in test [7] was over 100 µM in each case. The TGI in test [8], in test [9] and in test [10] was over 100 µM each time.
Consider `CN1CCN(CCCN2c3ccccc3Sc3ccc(C(F)(F)F)cc32)CC1`, for which the GI50 in test [1] was 1.78 µM and 10 µM and 4.08 µM; in test [2], 1070 nM and 2260 nM and 7540 nM; in test [3], 1.75 µM and 6.11 µM and 1.7 µM; in test [4] it was 1.76 µM; in [5], 1.92 µM; in [6], 1550 nM. Moreover, the GI50 was 1570 nM in test [7], 2430 nM in [8], 1650 nM in test [9] and 1590 nM in [10]. Moreover, the TGI was 4.62 µM and 23.1 µM and 15.5 µM in [1]; 4.35 µM and 10.4 µM and 20.5 µM in [2]; 3.87 µM and 19.9 µM and 5.08 µM in [3]; 3.68 µM and 15.8 µM and 23.2 µM in [4]; 4.15 µM and 27.7 µM and 28.2 µM in test [5]; 3.36 µM and 22.4 µM and 23 µM in test [6]. In addition, the TGI in test [7] was 3.08 µM and 4.34 µM and 3.91 µM; in test [8], 6.57 µM and 17.3 µM and 21.3 µM; in [9], 3.04 µM and 4.34 µM and 6.17 µM; in [10], 3.28 µM and 8.79 µM and 11.2 µM.
For the compound `O=C1C(Cl)=C(Nc2ccccn2)C(=O)c2ccccc21`, the GI50 in test [1] was 10.2 µM; in test [2], 3170 nM; in test [3], 3.23 µM; in test [5], 13.9 µM; in [6], 3820 nM; in test [7] it was 2100 nM. Besides, the results for the GI50 in [8], in [9] and in [10] were 3540 nM, 1650 nM and 2040 nM, respectively. Further, the TGI in [1] came out at 21.8 µM; in test [2], 9.84 µM; in [3], 16.6 µM; in test [5], 26.9 µM; in test [6], 18.8 µM; in test [7], 3.95 µM. Further, the values for the TGI in test [8], in test [9] and in [10] were over 100 µM, 3.03 µM and 5.29 µM, respectively.
With `C=CCCC(O)c1ccc(CCCCCCCCCCC)o1` (stereo not given), the GI50 in test [1] was 18.5 µM; in test [2], 18200 nM; in test [3] it was 12.6 µM; in test [4], 14.2 µM; in test [5] it was 16.9 µM; in test [6] it was 16000 nM. In addition, the GI50 in [7] is 12300 nM; in [8], 17000 nM; in test [9] it was 17000 nM; in test [10], 31800 nM. Besides, the TGI in [1] was 36.5 µM; in test [2], 35.9 µM; in test [3] it was 26.2 µM; in [4] it was 30.4 µM; in test [5] it was 33.8 µM; in [6], 31.5 µM. Further, the TGI in test [7] came out at 25 µM; in [8] it was 31.5 µM; in test [9], 31.5 µM; in test [10], 47.2 µM.
Take `Cc1ccc(C)c(N2C(=O)C(=O)c3c(C)ccc(C)c32)c1`: the TGI is over 100 µM in test [1]; 96.8 µM in [2]; 49.8 µM in [3]; 54.8 µM in test [4]; over 100 µM in test [5]; 87.1 µM in test [6]. Moreover, the TGI in [7] was 34.8 µM; in test [8] it was 27.2 µM; in test [9], 41.2 µM; in test [10], 31.2 µM.
Regarding `Cc1ccc2nc(CC(=O)c3ccc4ccccc4c3)c(=O)[nH]c2c1`, the TGI in [1], in test [2], in test [3], in [4], in [5] and in test [6] was over 100 µM in each case. The TGI in test [7], in test [8], in [9] and in test [10] was over 100 µM throughout.
On to `O=C1c2ccccc2CCC1(Br)Br`, for which the GI50 was 1.68 µM in test [1]; 1270 nM in test [2]; 1.97 µM in test [3]; 14.6 µM in [4]; 6.12 µM in test [5]; 1650 nM in test [6]. In addition, the GI50 in [7] is 1960 nM; in test [8], 743 nM; in [9] it was 2320 nM; in test [10] it was 1480 nM. The TGI amounted to 3.32 µM in test [1]; 2.58 µM in test [2]; 4.72 µM in test [3]; 28 µM in test [4]; 18.2 µM in test [5]; 3.04 µM in test [6]. In addition, the TGI is 4.54 µM in test [7], 2.24 µM in test [8], 5.87 µM in test [9] and 2.9 µM in test [10].
With `C=C(CN(C)C)C(=O)c1ccc(OC)cc1`, the TGI was 24.9 µM in test [1]; 3.28 µM in test [2]; 17.3 µM in test [3]; 45.7 µM in [4]; 41.3 µM in test [5]; 5.18 µM in test [6]. The TGI was determined as 20.4 µM in [7], 5.96 µM in [8], 18 µM in [9] and 25.4 µM in [10].
Regarding `COCO[C@@H]1CC2C=Nc3cc(OCc4ccccc4)c(OC)cc3C(=O)N2C1` (stereo not given in full), the GI50 in test [1] is 0.242 µM; in test [2], 456 nM; in [3] it was 0.248 µM; in test [4] it was 0.559 µM; in test [5], 0.611 µM; in [6], 209 nM. Moreover, the GI50 was 463 nM in test [7], 844 nM in test [8], 357 nM in test [9] and 305 nM in test [10]. The TGI in [1] came out at 0.972 µM; in test [2], 6.83 µM; in test [3] it was 1.57 µM; in test [4] it was 12.1 µM; in [5], 6.2 µM; in test [6] it was 0.513 µM. For the same compound, the TGI in test [7] is 1.03 µM; in test [8], 6.56 µM; in test [9], 0.908 µM; in test [10] it was 10.4 µM.
As for `COc1ccc(CCN2COc3ccc4ccc(=O)oc4c3C2)cc1OC`, the TGI in [1], in test [2], in [3], in test [4], in test [5] and in test [6] was over 100 µM each time. The total growth inhibition concentration (TGI) in test [7] is over 100 µM; in test [8], over 100 µM; in test [9], over 100 µM; in test [10] it was 49.4 µM.
For the compound `CC#CC(=O)N[C@H]1CCCN(c2c(F)cc(C(N)=O)c3[nH]c(C)c(C)c23)C1`, the GI50 in test [1] was 12.6 µM; in test [2], 15600 nM; in [3] it was 14 µM; in [4] it was 27.3 µM; in test [5] it was 14.4 µM; in [6], 13400 nM. The GI50 is 14400 nM in test [7], 15900 nM in test [8], 17900 nM in test [9] and 14900 nM in test [10]. The TGI in test [1] was 26.6 µM; in [2], 64.7 µM; in [3] it was 29.1 µM; in test [4], 74.5 µM; in [5] it was 59.6 µM; in [6], 34.1 µM. Moreover, the TGI in test [7] worked out at 28.5 µM; in test [8], 32.9 µM; in [9], 31.9 µM; in test [10] it was 28.1 µM.

As usually defined, the TGI is the concentration at which net growth stops. Low readings indicate greater sensitivity of the cells, high ones lower sensitivity of the cells. By GI50 is commonly meant the concentration at which growth is held to half of that of the control.
